Where “and” joins values, the source holds several entries; their conditions need not be identical. Identical values can stand only once. Like-named read-outs stand apart in the source and are kept apart here.
What was measured:
human SGLT2 = molecular target: T1, human SGLT2 (Homo sapiens, UniProt P31639); experiment: SGLT2 functional assay: inhibition of AMG uptake in CHO-FlpIn cells stably expressing human SGLT2; assay type: cell-based; conditions: individual runs (Run No.), read-out: hSGLT2 IC50
T1 construct: expressed in transfected cells; host or cells: CHO-FlpIn (Invitrogen)
T1 sequence (P31639 1-672): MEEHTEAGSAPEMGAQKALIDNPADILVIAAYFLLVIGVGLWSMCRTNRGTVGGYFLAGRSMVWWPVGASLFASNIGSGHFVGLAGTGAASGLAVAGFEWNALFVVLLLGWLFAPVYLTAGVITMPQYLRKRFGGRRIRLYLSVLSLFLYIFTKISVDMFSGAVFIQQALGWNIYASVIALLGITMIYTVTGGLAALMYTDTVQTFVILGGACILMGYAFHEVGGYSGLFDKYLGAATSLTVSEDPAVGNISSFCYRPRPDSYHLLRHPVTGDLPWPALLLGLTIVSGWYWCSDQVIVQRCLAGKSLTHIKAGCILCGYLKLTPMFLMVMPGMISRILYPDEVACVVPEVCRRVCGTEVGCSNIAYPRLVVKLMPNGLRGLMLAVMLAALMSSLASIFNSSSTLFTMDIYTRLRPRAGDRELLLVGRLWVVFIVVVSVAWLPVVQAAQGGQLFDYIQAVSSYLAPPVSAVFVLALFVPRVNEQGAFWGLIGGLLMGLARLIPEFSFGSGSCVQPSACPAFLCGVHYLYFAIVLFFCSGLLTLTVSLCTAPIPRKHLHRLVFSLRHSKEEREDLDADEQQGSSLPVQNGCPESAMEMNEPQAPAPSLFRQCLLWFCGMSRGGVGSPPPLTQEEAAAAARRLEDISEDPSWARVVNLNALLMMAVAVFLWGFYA
Source text: The SGLT2 functional assay was designed to detect the inhibition of methyl-alpha-D glucopyranoside (AMG—a non-metabolizable form of glucose) uptake via the SGLT2 transporter. The SGLT2 transporter recovers glucose from the proximal tubules of the kidney; its inhibition results in sugar wasted in the urine. The positive control compound, Phlorizin, is a known inhibitor of glucose uptake for SGLT2 and was used for comparing the high percent effect of SGLT2 inhibition of the test compounds.
CHO-FlpIn (Invitrogen, Carlsbad, Calif.) cells stably expressing human SGLT2 (pcDNA5/FRT) were plated in Iso-TC 96 well plates (Perkin Elmer, Waltham, Mass.) at a density of 100,000 cells/well in 100 microL of growth media (1:1 F-12/DMEM media (Gibco, Carlsbad, Calif.), 10% FBS (Sigma, St. Louis Mo.), 1× Pen/Strep (Gibco, Carlsbad, Calif.), 600 microg/mL Hygromycin (Invitrogen, Carlsbad, Calif.)). Prior to treating with test compound, confluent cells were serum starved for 2 hours at 37° C. in 1:1 F-12/DMEM media, replacing with fresh F-12/DMEM media after 1 hour. […] Cell plates were then incubated for 3 hours at 37° C. for AMG uptake.

[1] = PK satellite group of the in-vivo UGE assay (plasma by LC-MS/MS); conditions: male, Sprague Dawley, rat plasma, oral gavage; for Tmax: read-out: Mean PK Parameters (n = 2) tmax
Protocol: Male Sprague Dawley rats (˜300 g) were singly housed in metabolic cages for urine collection. […] Rats (n=2 to 5/group) received vehicle or compound by oral gavage. Dosing solutions were 0.03 mg/mL, 0.3 mg/mL, 0.9 mg/mL, 3 mg/mL, 9 mg/mL and 18 mg/mL for the 0.1 mg/kg, 1 mg/kg, 3 mg/kg, 10 mg/kg, 30 mg/kg and 60 mg/kg doses respectively. Dosing volume was 1 mL/300 g of body weight for all doses. […] The vehicle was 20% v/v PEG400 and 24% v/v hydroxypropyl beta cyclodextrin; HPBCD. Following oral administration, urine was collected for 24 hours. Glucose concentration was measured in urine by UV absorbance spectrophotometry at 340 nm using a Roche Hitachi 917 spectrophotometer (Diamond Diagnostics, Holliston, Mass.). The total amount of glucose excreted in the urine was calculated as the product of urine concentration and urine volume using the formula below: urinary glucose excreted (mg)/200 g body weight=urinary glucose concentration (mg/dL)×urine volume (dL)×200/rat body weight (g). […] Blood (0.1 mL) was collected from the PK satellite group animals at 1, 2, 4, 7, 24 hours postdose to obtain plasma and analyzed by LC-MS/MS.

hSGLT1 = molecular target: T2, hSGLT1 (Homo sapiens, UniProt P13866); experiment: SGLT1 functional assay: hSGLT1 IC50 (selectivity counter-screen to the SGLT2 AMG uptake assay); assay type: cell-based; conditions: individual runs (Run No.)
T2 sequence (P13866 1-664): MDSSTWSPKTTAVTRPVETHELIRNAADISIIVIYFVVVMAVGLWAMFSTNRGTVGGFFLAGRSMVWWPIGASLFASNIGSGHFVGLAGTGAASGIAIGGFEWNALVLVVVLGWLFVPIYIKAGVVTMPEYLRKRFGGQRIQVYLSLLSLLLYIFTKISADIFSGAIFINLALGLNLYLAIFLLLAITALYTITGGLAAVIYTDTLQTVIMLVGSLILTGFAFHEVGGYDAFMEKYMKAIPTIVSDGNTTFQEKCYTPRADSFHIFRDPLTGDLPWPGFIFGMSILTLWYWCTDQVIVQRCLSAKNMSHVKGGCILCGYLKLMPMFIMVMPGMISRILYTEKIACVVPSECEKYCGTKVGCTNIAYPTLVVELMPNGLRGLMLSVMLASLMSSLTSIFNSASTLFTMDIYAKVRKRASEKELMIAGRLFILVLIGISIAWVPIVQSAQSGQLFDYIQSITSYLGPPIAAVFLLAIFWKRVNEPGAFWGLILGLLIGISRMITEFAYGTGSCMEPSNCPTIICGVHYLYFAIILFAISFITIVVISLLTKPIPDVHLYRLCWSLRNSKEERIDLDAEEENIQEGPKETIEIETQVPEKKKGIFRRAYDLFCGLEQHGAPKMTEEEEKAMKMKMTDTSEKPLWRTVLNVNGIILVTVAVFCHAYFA

Structure (SMILES) | IC50 (human SGLT2) | AUC(0-t) ([1]; 10 mg/kg) | Cmax ([1]; 10 mg/kg) | Tmax ([1]; 10 mg/kg) | IC50 (hSGLT1) | AUC(0-t) ([1]; 0.1 mg/kg) | Cmax ([1]; 0.1 mg/kg) | AUC(0-t) ([1]; 1 mg/kg) | Cmax ([1]; 1 mg/kg) | Tmax ([1]; 1 mg/kg) | AUC(0-t) ([1]; 3 mg/kg) | Cmax ([1]; 3 mg/kg) | Tmax ([1]; 3 mg/kg) | AUC(0-t) ([1]; 30 mg/kg) | Cmax ([1]; 30 mg/kg) | Tmax ([1]; 30 mg/kg) | AUC(0-t) ([1]; 60 mg/kg) | Cmax ([1]; 60 mg/kg) | Tmax ([1]; 60 mg/kg)
COc1ccc(Cc2cc([C@]34OC[C@](CO)(O3)[C@@H](O)[C@H](O)[C@H]4O)ccc2C)cc1 [Example 1A, (1S,2S,3S,4R,5S)-1-hydroxymethyl-5-[3-(4-methoxy-benzyl)-4-methyl-phenyl]-6,8-dioxa-bicyclo[3.2.1]octane-2,3,4-triol] | 1.61 nM and 1.55 nM and 1.15 nM and 0.779 nM and 0.715 nM and 0.654 nM | 6630 ng·h/mL | 1260 ng/mL | 1 h | 359 nM and 1080 nM and 454 nM and 327 nM and 562 nM and 262 nM |  |  |  |  |  |  |  |  |  |  |  |  |  | 
CCOc1ccc(Cc2cc([C@]34OC[C@](CO)(O3)[C@@H](O)[C@H](O)[C@H]4O)ccc2Cl)cc1 [Example 4A, (1S,2S,3S,4R,5S)-5-[4-chloro-3-(4-ethoxy-benzyl)-phenyl]-1-hydroxymethyl-6,8-dioxa-bicyclo[3.2.1]octane-2,3,4-triol] | 1.27 nM and 0.816 nM and 0.57 nM and 0.922 nM and 1.85 nM and 0.812 nM and 0.7 nM and 0.737 nM and 0.846 nM and 0.768 nM | 26400 ng·h/mL | 3100 ng/mL | 2.5 h | 1590 nM and 1010 nM and 1750 nM and > 1000 nM and 2090 nM and 1810 nM and 2860 nM and 2480 nM and 2840 nM | 188 ng·h/mL | 43.4 ng/mL | 2000 ng·h/mL | 372 ng/mL | 1 h | 7080 ng·h/mL | 1320 ng/mL | 1 h | 10700 ng·h/mL | 10500 ng/mL | 1 h | 233000 ng·h/mL | 25300 ng/mL | 2 h

Source: patent publication US8080580B2, “Dioxa-bicyclo[3.2.1]octane-2,3,4-triol derivatives” (Pfizer Inc., priority 2008, dated 2011)
